Assay results taken from paper PMC11272598, “RG7774 (Vicasinabin), an orally bioavailable cannabinoid receptor 2 (CB2R) agonist, decreases retinal vascular permeability, leukocyte adhesion, and ocular inflammation in animal models” (Frontiers in Pharmacology, 2024).

How the values were obtained:
5-HT3 (h) = 5-HT3 (h) (Homo sapiens, UniProt P46098); test: CEREP radioligand binding; settings: radioligand [^3H]-BRL 43694
Description: (§1) Supplement Table1.docx, table 3: Supplementary Table S3. RG7774 binding to non-CB1R/CB2R receptors, ion channels, transporters, and enzymes (CEREP, Celle l’Evescault, France; http://www.cerep.fr). | column: % inhibition of control SB (n = 2)

5-HT5A (h) = 5-HT5A (h) (Homo sapiens, UniProt P47898); test: CEREP radioligand binding; settings: radioligand [^3H]-LSD
Description: as §1

5-HT6 (h) = 5-HT6 (h) (Homo sapiens, UniProt P50406); test: CEREP radioligand binding; settings: radioligand [^3H]-LSD
Description: as §1

A3 (h) = A3 (h) (Homo sapiens, UniProt P0DMS8); test: CEREP radioligand binding; settings: radioligand [^125I]-AB-MECA
Description: as §1

B2 (h) = B2 (h) (Homo sapiens, UniProt P30411); test: CEREP radioligand binding; settings: radioligand [^3H]-bradykinin
Description: as §1

CB1 (h) = CB1 (h) (Homo sapiens, UniProt P21554); test: CEREP radioligand binding; settings: radioligand [^3H]-CP 55940
Description: as §1

CCK1 (CCKA) (h) = CCK1 (CCKA) (h) (Homo sapiens, UniProt P32238); test: CEREP radioligand binding; settings: radioligand [^125I]-CCK-8s
Description: as §1

CXCR2 = CXCR2 (Homo sapiens, UniProt P25025); test: CEREP radioligand binding; settings: radioligand [^125I]-IL-8
Description: as §1

D1 (h) = D1 (h) (Homo sapiens, UniProt P21728); test: CEREP radioligand binding; settings: radioligand [^3H]-SCH 23390
Description: as §1

D2S (h) = D2S (h) (Homo sapiens, UniProt P14416); test: CEREP radioligand binding; settings: radioligand [^3H]-methyl-spiperone
Description: as §1

D3 (h) = D3 (h) (Homo sapiens, UniProt P35462); test: CEREP radioligand binding; settings: radioligand [^3H]-methyl-spiperone
Description: as §1

GABA (non-selective) = test: CEREP radioligand binding; settings: radioligand [^3H]-GABA
Description: as §1

H2 (h) = H2 (h) (Homo sapiens, UniProt P25021); test: CEREP radioligand binding; settings: radioligand [^125I]-APT
Description: as §1

KV channel = test: CEREP radioligand binding; settings: radioligand [^125I]-α-dendrotoxin
Description: as §1

M3 (h) = M3 (h) (Homo sapiens, UniProt P20309); test: CEREP radioligand binding; settings: radioligand [^3H]-4-DAMP
Description: as §1

NK2 (h) = NK2 (h) (Homo sapiens, UniProt P21452); test: CEREP radioligand binding; settings: radioligand [^125I]-NKA
Description: as §1

NK3 (h) = NK3 (h) (Homo sapiens, UniProt P29371); test: CEREP radioligand binding; settings: radioligand [^3H]-SR 142801
Description: as §1

NOP (ORL1) (h) = NOP (ORL1) (h) (Homo sapiens, UniProt P41146); test: CEREP radioligand binding; settings: radioligand [^3H]-nociceptin
Description: as §1

NTS1 (NT1) (h) = NTS1 (NT1) (h) (Homo sapiens, UniProt P30989); test: CEREP radioligand binding; settings: radioligand [^125I]-Tyr3-neurotensin
Description: as §1

[1] = target: Norepinephrine transporter (h) (Homo sapiens, UniProt P23975); test: CEREP radioligand binding; settings: radioligand [^3H]-nisoxetine
Description: as §1

PCP = test: CEREP radioligand binding; settings: radioligand [^3H]-TCP
Description: as §1

PDGF = test: CEREP radioligand binding; settings: radioligand [^125I]-PDGF BB
Description: as §1

PPARγ (h) = PPARγ (h) (Homo sapiens, UniProt P37231); test: CEREP radioligand binding; settings: radioligand [^3H]-rosiglitazone
Description: as §1

Y2 (h) = Y2 (h) (Homo sapiens, UniProt P49146); test: CEREP radioligand binding; settings: radioligand [^125I]-peptide YY
Description: as §1

sst (non-selective) = test: CEREP radioligand binding; settings: radioligand [^125I]-Tyr^11-somatostatin-14
Description: as §1

human CB1R = human CB1R (Homo sapiens, UniProt P21554); test: Competition binding, [^3H]-CP55940, CHO cell membranes; parameters: expressed in transfected cells; host or cells: CHO cells (membranes); settings: CHO cells
Experimental: Competition and saturation binding assays were performed using the radiolabeled CB1R/CB2R agonist [^3H]-CP55940 (PerkinElmer, Waltham, MA, United States) in recombinant cell systems, and the newly developed CB2R-selective agonist [^3H]-RO6753361 ([Chicca et al., 2024]) in cells expressing endogenous CB1R/CB2R. Competition assays were conducted by incubating 5, 40, or 40 µg of membrane protein from CHO cells, Jurkat cells or spleen cells, respectively, with 1.5 nM [^3H]-CP55940 or 1.5 nM [^3H]-RO6753361 in the presence or absence of increasing concentrations of ligand (RG7774 or control) for 2 h at 30°C in a final volume of 0.2 mL of assay buffer (50 mmol/L Tris-HCl, 5 mmol/L MgCl2, 2.5 mmol/L EDTA, and 0.5% fatty acid-free BSA [pH 7.4] and 1% DMSO), with gentle shaking. Saturation binding assays were conducted by incubating 1–3 μg, 40 μg, or 30–40 μg of membrane protein from CHO cells, Jurkat cells, or spleen tissue, respectively, with 12 concentrations in the range of 80–0.039 nM [^3H]-CP55940 or [^3H]-RO6753361 for 2 h at 30°C in a final volume of 0.2 mL/well of assay buffer without DMSO. […] IC50 values and Hill slopes were determined with a 4-parameter logistic model using ActivityBase (ID Business Solution, Guilford, United Kingdom) and pKi values were determined using the Cheng-Prusoff equation ([Cheng and Prusoff, 1973]).

Sequence of NTS1 (NT1) (h) (P30989 whole entry): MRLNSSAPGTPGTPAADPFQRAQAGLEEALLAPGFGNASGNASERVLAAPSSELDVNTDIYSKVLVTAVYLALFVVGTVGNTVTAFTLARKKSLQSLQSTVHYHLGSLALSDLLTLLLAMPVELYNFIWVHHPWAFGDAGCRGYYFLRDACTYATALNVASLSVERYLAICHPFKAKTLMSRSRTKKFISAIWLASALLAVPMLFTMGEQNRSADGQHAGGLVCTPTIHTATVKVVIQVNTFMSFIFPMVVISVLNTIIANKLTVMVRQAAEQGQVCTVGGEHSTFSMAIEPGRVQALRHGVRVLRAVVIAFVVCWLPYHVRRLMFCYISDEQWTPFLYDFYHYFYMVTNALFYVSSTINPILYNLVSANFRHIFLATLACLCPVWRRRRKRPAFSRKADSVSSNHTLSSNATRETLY
Sequence of B2 (h) (P30411 whole entry): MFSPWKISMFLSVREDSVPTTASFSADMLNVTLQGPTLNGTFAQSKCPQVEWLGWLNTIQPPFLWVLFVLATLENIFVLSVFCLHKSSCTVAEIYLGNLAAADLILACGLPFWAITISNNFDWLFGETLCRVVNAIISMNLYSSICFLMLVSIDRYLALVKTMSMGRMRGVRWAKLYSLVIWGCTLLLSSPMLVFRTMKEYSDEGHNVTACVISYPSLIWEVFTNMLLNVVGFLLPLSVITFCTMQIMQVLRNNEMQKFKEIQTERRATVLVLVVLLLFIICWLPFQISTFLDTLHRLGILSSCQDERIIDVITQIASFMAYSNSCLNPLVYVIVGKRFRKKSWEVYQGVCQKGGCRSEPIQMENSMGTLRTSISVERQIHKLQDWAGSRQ
Sequence of Norepinephrine transporter (h) (P23975 whole entry): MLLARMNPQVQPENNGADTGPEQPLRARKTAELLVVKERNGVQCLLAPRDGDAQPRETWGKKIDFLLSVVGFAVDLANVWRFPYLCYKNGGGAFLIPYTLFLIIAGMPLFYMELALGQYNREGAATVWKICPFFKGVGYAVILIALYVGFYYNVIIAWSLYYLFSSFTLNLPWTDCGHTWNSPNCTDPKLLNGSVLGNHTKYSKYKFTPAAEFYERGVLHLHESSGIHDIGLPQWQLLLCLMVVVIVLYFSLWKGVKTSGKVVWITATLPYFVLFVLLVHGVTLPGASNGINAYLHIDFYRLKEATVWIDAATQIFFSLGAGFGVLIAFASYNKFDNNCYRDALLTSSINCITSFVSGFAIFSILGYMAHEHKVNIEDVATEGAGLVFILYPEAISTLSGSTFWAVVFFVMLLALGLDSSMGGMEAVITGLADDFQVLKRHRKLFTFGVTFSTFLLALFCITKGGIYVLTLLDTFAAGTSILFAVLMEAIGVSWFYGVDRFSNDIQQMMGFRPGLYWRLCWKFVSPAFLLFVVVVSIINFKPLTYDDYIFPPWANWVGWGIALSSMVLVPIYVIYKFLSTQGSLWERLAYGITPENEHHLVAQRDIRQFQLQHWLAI
Sequence of 5-HT3 (h) (P46098 24-478): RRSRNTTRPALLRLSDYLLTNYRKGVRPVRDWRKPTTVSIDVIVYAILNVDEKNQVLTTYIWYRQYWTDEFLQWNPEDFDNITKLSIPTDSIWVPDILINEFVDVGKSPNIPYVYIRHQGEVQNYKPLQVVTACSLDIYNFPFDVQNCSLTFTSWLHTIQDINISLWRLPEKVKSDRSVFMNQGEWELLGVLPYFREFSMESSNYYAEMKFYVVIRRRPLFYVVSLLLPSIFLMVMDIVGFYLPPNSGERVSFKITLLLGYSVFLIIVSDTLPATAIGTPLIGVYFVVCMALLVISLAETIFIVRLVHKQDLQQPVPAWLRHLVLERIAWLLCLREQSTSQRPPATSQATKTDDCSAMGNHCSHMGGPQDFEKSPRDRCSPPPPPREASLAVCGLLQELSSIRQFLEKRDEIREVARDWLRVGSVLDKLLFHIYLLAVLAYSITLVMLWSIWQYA
Sequence of PPARγ (h) (P37231 whole entry): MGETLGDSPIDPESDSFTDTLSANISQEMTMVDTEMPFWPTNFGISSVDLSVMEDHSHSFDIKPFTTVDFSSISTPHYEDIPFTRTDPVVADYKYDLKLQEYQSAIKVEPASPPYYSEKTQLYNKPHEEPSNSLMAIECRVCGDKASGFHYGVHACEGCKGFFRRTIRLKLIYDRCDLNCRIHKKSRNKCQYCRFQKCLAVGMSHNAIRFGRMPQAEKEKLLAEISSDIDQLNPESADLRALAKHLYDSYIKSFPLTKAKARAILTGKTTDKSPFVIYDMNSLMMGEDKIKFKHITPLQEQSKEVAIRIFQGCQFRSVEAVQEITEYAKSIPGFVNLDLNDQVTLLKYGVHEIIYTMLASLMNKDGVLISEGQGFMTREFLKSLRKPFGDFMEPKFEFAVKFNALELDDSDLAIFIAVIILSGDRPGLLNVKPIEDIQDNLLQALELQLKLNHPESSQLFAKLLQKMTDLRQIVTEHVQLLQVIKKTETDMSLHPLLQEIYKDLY
Sequence of H2 (h) (P25021 whole entry): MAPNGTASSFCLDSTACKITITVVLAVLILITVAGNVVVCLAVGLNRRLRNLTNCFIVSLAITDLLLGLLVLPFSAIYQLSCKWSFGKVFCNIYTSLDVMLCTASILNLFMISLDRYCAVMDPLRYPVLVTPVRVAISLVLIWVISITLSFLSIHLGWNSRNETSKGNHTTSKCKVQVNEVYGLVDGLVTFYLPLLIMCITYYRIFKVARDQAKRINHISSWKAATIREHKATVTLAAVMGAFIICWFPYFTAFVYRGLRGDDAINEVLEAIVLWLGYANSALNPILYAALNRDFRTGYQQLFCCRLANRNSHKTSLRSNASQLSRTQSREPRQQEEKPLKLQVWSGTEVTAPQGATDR
Sequence of CXCR2 (P25025 whole entry): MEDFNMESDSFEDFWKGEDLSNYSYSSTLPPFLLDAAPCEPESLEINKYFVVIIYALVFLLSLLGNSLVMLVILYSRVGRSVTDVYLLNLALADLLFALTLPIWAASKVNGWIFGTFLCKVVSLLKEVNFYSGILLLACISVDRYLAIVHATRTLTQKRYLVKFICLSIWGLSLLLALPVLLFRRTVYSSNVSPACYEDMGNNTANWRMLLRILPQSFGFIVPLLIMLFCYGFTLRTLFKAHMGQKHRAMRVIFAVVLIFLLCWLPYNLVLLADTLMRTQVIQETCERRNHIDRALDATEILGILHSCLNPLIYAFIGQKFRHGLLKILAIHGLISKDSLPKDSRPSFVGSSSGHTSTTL
Sequence of Y2 (h) (P49146 whole entry): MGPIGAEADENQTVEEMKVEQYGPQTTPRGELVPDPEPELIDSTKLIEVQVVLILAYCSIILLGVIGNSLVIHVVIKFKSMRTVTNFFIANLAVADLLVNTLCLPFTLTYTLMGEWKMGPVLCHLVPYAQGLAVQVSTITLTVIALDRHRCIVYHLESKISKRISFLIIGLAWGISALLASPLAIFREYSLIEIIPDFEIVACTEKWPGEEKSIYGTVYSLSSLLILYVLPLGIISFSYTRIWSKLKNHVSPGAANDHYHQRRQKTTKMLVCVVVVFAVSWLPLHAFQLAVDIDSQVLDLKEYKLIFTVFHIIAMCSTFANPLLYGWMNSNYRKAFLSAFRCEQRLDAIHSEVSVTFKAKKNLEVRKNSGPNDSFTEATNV
Sequence of A3 (h) (P0DMS8 whole entry): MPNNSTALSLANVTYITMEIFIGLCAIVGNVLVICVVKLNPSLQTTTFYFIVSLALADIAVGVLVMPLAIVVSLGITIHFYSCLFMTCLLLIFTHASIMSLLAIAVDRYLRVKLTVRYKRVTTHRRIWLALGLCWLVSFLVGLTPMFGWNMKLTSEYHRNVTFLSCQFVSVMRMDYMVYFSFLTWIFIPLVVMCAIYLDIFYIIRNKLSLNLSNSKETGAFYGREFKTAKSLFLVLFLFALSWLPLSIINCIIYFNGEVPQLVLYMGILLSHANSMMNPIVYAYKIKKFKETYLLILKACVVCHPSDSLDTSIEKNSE
Sequence of NK2 (h) (P21452 whole entry): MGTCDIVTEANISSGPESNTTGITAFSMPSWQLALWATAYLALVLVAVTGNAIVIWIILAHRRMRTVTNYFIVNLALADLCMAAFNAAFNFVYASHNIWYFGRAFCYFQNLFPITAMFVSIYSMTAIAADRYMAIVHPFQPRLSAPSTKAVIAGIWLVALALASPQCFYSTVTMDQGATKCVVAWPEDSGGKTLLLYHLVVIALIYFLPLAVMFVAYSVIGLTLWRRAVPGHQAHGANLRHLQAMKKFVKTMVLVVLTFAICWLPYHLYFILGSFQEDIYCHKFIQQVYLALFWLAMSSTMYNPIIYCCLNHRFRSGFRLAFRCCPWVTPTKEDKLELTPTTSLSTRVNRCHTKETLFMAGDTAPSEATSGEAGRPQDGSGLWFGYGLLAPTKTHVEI
Sequence of 5-HT5A (h) (P47898 whole entry): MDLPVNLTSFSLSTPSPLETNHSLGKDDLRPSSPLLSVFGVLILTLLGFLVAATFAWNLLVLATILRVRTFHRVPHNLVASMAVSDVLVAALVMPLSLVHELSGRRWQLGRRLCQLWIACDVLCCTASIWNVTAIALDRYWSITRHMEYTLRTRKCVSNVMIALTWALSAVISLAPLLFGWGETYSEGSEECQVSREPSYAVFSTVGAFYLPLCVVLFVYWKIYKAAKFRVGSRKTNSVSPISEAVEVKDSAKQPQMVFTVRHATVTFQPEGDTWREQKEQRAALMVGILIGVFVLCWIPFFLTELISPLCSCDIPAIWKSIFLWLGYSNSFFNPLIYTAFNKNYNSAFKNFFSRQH
Sequence of NOP (ORL1) (h) (P41146 whole entry): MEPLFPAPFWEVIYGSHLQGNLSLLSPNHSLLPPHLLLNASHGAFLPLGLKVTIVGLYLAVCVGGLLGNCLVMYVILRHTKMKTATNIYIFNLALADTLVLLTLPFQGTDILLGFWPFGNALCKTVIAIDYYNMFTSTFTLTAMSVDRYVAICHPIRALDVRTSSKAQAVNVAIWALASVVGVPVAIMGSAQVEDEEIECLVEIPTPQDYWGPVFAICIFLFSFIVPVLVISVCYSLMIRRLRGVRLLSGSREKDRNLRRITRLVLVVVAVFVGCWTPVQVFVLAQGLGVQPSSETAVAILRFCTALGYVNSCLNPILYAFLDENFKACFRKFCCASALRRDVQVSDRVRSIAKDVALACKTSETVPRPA

Compound: Cn1nnnc1Cn1nnc2c(N3CC[C@H](O)C3)nc(C(C)(C)C)nc21 [RG7774, (S)-1-(5-tert-butyl-3-[(1-methyl-1H-tetrazol-5-yl)methyl]-3H-[1,2,3]triazolo[4,5-d]pyrimidin-7-yl)pyrrolidin-3-ol]
- % inhibition of control SB (n = 2) (5-HT3 (h)): 1.4%
- % inhibition of control SB (n = 2) (5-HT5A (h)): 2.2%
- % inhibition of control SB (n = 2) (5-HT6 (h)): 3.5%
- % inhibition of control SB (n = 2) (A3 (h)): –0.6%
- % inhibition of control SB (n = 2) (B2 (h)): –1.6%
- % inhibition of control SB (n = 2) (CB1 (h)): –0.8%
- % inhibition of control SB (n = 2) (CCK1 (CCKA) (h)): –7.4%
- % inhibition of control SB (n = 2) (CXCR2): –7.7%
- % inhibition of control SB (n = 2) (D1 (h)): –1.0%
- % inhibition of control SB (n = 2) (D2S (h)): 12.0%
- % inhibition of control SB (n = 2) (D3 (h)): –0.3%
- % inhibition of control SB (n = 2) (GABA (non-selective)): –16.1%
- % inhibition of control SB (n = 2) (H2 (h)): –2.3%
- % inhibition of control SB (n = 2) (KV channel): –5.7%
- % inhibition of control SB (n = 2) (M3 (h)): –6.7%
- % inhibition of control SB (n = 2) (NK2 (h)): –5.5%
- % inhibition of control SB (n = 2) (NK3 (h)): 8.2%
- % inhibition of control SB (n = 2) (NOP (ORL1) (h)): 2.7%
- % inhibition of control SB (n = 2) (NTS1 (NT1) (h)): –4.7%
- % inhibition of control SB (n = 2) [1]: 5.4%
- % inhibition of control SB (n = 2) (PCP): –4.4%
- % inhibition of control SB (n = 2) (PDGF): –5.6%
- % inhibition of control SB (n = 2) (PPARγ (h)): 1.7%
- % inhibition of control SB (n = 2) (Y2 (h)): –3.6%
- % inhibition of control SB (n = 2) (sst (non-selective)): –22.2%
- binding to recombinant human CB1R (human CB1R): no binding
